Experimental data taken from paper PMC6036132, “In Silico Workflow for the Discovery of Natural Products Activating the G Protein-Coupled Bile Acid Receptor 1” (Frontiers in Chemistry, 2018).

Biological target: T1, G protein-coupled bile acid receptor 1 (GPBAR1) (Homo sapiens, UniProt Q8TDU6)
T1 construct: full-length GPBAR1 expression plasmid (Origene), transiently transfected in HEK 293T cells with CRE-Luc and EGFP plasmids
T1 sequence (Q8TDU6 1-330): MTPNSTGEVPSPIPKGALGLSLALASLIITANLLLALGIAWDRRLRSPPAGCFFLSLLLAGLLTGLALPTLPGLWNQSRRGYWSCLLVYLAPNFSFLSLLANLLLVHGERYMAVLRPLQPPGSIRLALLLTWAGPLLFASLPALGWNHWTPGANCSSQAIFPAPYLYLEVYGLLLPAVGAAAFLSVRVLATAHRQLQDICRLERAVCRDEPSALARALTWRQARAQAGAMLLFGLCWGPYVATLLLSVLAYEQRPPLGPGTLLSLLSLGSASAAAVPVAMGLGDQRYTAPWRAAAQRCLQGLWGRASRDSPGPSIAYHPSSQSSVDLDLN
Assay: CRE-luciferase reporter assay in transfected HEK […] cells, EGFP-normalised
Type: cell-based
Conditions: agonist; 18 h; relative to 10 μM LCA = 100%

C[C@H](CCC(=O)O)[C@H]1CC[C@H]2[C@@H]3[C@H](O)C[C@@H]4C[C@H](O)CC[C@]4(C)[C@H]3CC[C@]12C [compound 3, chenodeoxycholic acid]
Activity (at 5 μM): 66.69 ± 8.72%
